In one test the test system is heme regulated kinase. Further details: method as in PMID 21765405. Particulars: cited from earlier work.
For test [1], the system named is T. cruzi epimastigotes. Nature of the test: Alamar Blue viability assay of T. cruzi epimastigotes. Particulars: Trypanosoma cruzi, 72 h, epimastigotes incubated 3 days with compound; for EC50: concentration inhibiting 50% of multiplication; for EC90: concentration inhibiting 90% of multiplication. Type of test: cell-based, Trypanosoma cruzi (Y strain). As to the method: T. cruzi epimastigotes were incubated in culture medium for three days with 25 different compounds at 10 µM.
T. cruzi epimastigotes at 1 × 10^7/mL in 50 µL were incubated in 96-wells plates with the same volume of compounds pre-diluted in 50 µL of LIT medium for 48 hours at 28 °C. LLC-MK2 cells (3 × 10^3) in 100 µL of medium were added to 96 well plates. After 5 hours, the medium was replaced by fresh medium containing serial dilutions of test compounds and incubations proceeded for 72 hours at 37 °C. In both cases, 10 µL of AlamarBlue (Thermo Fisher Scientific) was added and the plates were further incubated for 18 hours at 28 °C for epimastigotes and 4 hours at 37 °C for mammalian cells. Absorbance at 570 nm and 600 nm were measured by using a SpectraMax M3 (Molecular Devices). The differences between absorbance at 570 nm and 600 nm for each well was normalized against a blank value for medium without parasites and lysed cells. Alternatively, L6 rat myoblast cell death and lysis were determined using the cytotoxicity Detection Kit Plus LDH Version 6 (Roche) after 72 hours incubation with the indicated compounds using the manufacturer protocol. […] Each compound was tested in triplicates in at least two independent experiments, with exceptions appointed on Table 1. Selective index was estimated by the ratio between LLC-MK2 EC50 and epimastigotes EC50 on Table 1.

Test [2] deals with T. cruzi epimastigotes. Put plainly: T. cruzi epimastigote multiplication in culture (parasite counting). The test is classed as cell-based, Trypanosoma cruzi (Y strain).
Test [3] relates to T. brucei procyclic form (PCF). Put plainly: T. brucei procyclic form multiplication (parasite counting). The test is classed as cell-based, Trypanosoma brucei. The settings on record: 48 hours at 28 °C, Fig. 1B.
A further test concerns mammalian eIF2α kinases. Also on record: method as in PMID 21765405, PMID 28590739. The settings on record: cited from earlier work.

Molecules are shown by their SMILES. “Also recorded” adds a separate entry of the source.

Regarding `O=C(Nc1ccc(Cl)c(Cl)c1)Nc1ccc2nnsc2c1` [BTdCPU, 1-(benzo [d][1,2,3]thiadiazol-6-yl)-3-(3,4-dichlorophenyl) urea], in the test with heme regulated kinase, the “activity on heme regulated kinase leading to eIF2α phosphorylation” value is “activator”.

For `O=C(Cn1ccnc1[N+](=O)[O-])NCc1ccccc1` [BZN, Benznidazole], in the test on T. cruzi epimastigotes [1], the EC50 (usually the concentration needed to bring the measured effect to its halfway point) turned out to be 211 ± 3 µM and the EC90 (usually the point of the concentration-response curve where the effect stands at 90%) was determined as 960 ± 25 µM.

For `O=C(Nc1ccc(Cl)c(Cl)c1)Nc1cc([N+](=O)[O-])ccc1Cl` [NCPdCPU, 1-(2-chloro-5-nitrophenyl)-3-(3,4-dichlorophenyl) urea], in the test with heme regulated kinase, the “activity on heme regulated kinase leading to eIF2α phosphorylation” value was “inactive”. Further, in the test with T. cruzi epimastigotes [1], the EC50 is over 10 µM and the EC90 is over 10 µM. For the same molecule, in the test on T. cruzi epimastigotes [2] (10 µM, three days in culture medium), the “effect on T. cruzi epimastigote multiplication at 10 µM” value was “unable to produce any visible effect; also recorded: no activity”. Moreover, the “inhibition of epimastigote multiplication (counting)” value with T. cruzi epimastigotes [2] (all tested concentrations, 48 hours, Fig. 1A) is “minimal inhibition”. In addition, the “multiplication of T. brucei PCF” value in test [3] is “not”. Also, in the test with mammalian eIF2α kinases, the “activation of mammalian eIF2α kinases” value was “failed to activate”.
